These results are taken from patent publication US20220096706A1, “ELECTROSPUN NANOFIBER-BASED DRESSINGS AND METHODS OF MANUFACTURE AND USE THEREOF” (BOARD OF REGENTS OF THE UNIVERSITY OF NEBRASKA, priority 2019, published 2022).

Non-standard residues stand in square brackets, D forms with d. No end group written: not given here. Bip = N[C@@H](Cc1ccc(-c2ccccc2)cc1)C(=O)O

Data set [1] deals with MRSA. Briefly: Antibiotic agar inhibition (MRSA inhibition zone) test. The following applies: FIG. 6E. Format: cell-based, Staphylococcus aureus.
In data set [2] the test system is MRSA biofilms. Kind of data set: In vivo antibiofilm efficacy test, MRSA biofilm wounds (B6.BKS(D)-Leprdb/J mice). Also on record: species or system type II diabetic mice. Conditions: 24 hours and 48 hours inoculation followed by 24 hour treatment of 2% mupirocin ointment. As for the experimental part:
A biofilm-containing chronic wound model was established. Briefly, MRSA was grown in TSB overnight. Subsequently, 100 μL of bacterial strain was pipetted into 4 mL of fresh TSB medium and cultivated for 3 hours followed by PBS washing for three times. Then, the bacterial concentration was adjusted to 1×10^8 CFU/mL and stored in the ice box before use. Nine […] 000697-B6.BKS(D)-Leprdb/J diabetic defective mice (male, 10-11 weeks, 50-55 g, GLU>200 mg/dL) fed with standard pellet diet and water were used.
The biofilm was established in 000697-B6.BKS(D)-Leprdb/J mice excisional wounds. […]
After the biofilm formation was performed, F127/17BIPHE2-PCL-S core-shell nanofiber membranes or Janus-type dressings were put on the wound, different dressing changes strategies were applied to treat the biofilm formed wound. […] All the dishes were inoculated in a 37° C. microbial incubator for 18 hours, and the CFU numbers were counted.
To further evaluate the anti-biofilm efficacy, MRSA biofilms were established in type II diabetic mice wounds (FIG. 21). […] The CFU of MRSA biofilms (10^10-10^12 CFU/g) formed after 24 hours and 48 hours of bacteria inoculation and removal of planktonic bacteria was quantified (FIG. 21B). […]

The subject of data set [3] is MRSA USA300 biofilm. Format: in vivo, type II diabetic mice. Conditions: 24 hours MRSA inoculation and subsequent 24 hour mupirocin 2% treatment.
Procedure: Briefly, MRSA was grown in TSB overnight. Subsequently, 100 μL bacterial strain was pipetted into 4 mL fresh TSB medium for 3 hours followed by PBS washing for three times. Then, the bacterial concentration was adjusted to 1×10^8 CFU/mL and stored in the ice box before use. One hundred female 005314-TALLYHO/JngJ diabetic defective mice (10-11 weeks, 30-35 g, GLU>200 mg/dL) fed with standard pellet diet and water were used.
The biofilm was established in 005314-TALLYHO/JngJ mice excisional wounds. Two 6 mm-diameter full thickness wounds were created on the back of a mouse using a disposable biopsy punch (Integra Miltex®, Kai Medical, USA) and fixed with a wound splint (Grace Bio-labs, Inc, Bend, Oreg.). The wounds were all inoculated with 10 μL of 1×10^8 CFU/mL MRSA instantly after surgery, and mupirocin 2% was applied to treat the wounds at day 2 (24 hours after surgery). Then, the surrounding and wound tissue was collected using an 8 mm-diameter punch and the biofilm was confirmed by CFU count, LIVE/DEAD® staining and SEM observation.
The biofilm formation was performed as above-mentioned. The mice were then divided into control groups and peptide groups. Control groups' wounds were treated with 6-mm diameter F127-PCL core-shell nanofiber discs alone. […] All the dishes were inoculated in a 37° C. microbial incubator for 18 hours and the CFU numbers were counted. […]
The subject of data set [4] is S. aureus USA300. Conditions: compared to either LL-37 or GF-17; cited from earlier work.
The subject of data set [5] is Staphylococcus aureus USA300. The following applies: cited from earlier work.
For data set [6] the following is noted: in biofilm; Lawrence, et al. (1994); cited from earlier work.
The test system of data set [7] is resistant ESKAPE pathogens, including persisters and biofilms. Conditions: cited from earlier work.

For the compound `C/C(=C\C(=O)OCCCCCCCCC(=O)O)C[C@@H]1OC[C@H](C[C@@H]2O[C@H]2[C@@H](C)[C@H](C)O)[C@@H](O)[C@H]1O` [mupirocin 2%, mupirocin], the “killing of planktonic bacteria in antibiotic agar inhibition test” value in data set [1] is “kill the planktonic bacteria very effectively”. Further, the “CFU of MRSA biofilms” value in data set [2] is listed as 10^10-10^12 CFU/g. Also, the “bacteria resided on surgical site and surrounding tissues” value in data set [3] was 10^10 CFU/g.

Turning to “GX1KRLVQRLKDX2LRNLV, wherein X1 and X2 are biphenylalanines (SEQ ID NO: 2) (G[Bip]KRLVQRLKD[Bip]LRNLV) [17BIPHE2, molecularly engineered human cathelicidin LL-37 peptide]”, the “protection of wax moths from S. aureus USA300 infection” value in data set [4] is reported as “optimized protection”.

As to LL-37, the “inhibition of bacterial attachment / disruption of preformed biofilms” value in data set [5] (Mishra, et al. (2016)) is “unable to inhibit bacterial attachment or disrupt preformed biofilms”. Further, in data set [5] (in vitro, Haisma, et al. (2014)), the “inhibition of biofilm growth of Staphylococcus aureus USA300” value was “only at a low concentration”.

Take “RRRWWWWV; SEQ ID NO: 7 (Antimicrobial peptide) [W379, peptide with merely eight amino acids]”: the “diffusion coefficient of peptides (D)” value in data set [6] is on record as 3.1×10^−12 m^2/s. In addition, the “antimicrobial activity against resistant ESKAPE pathogens” value in data set [7] was “antimicrobial activity”.
